Entries after “also recorded” stand apart in the source; their conditions may differ.
Molecular target: T1, human thymidylate synthase (hTS) (Homo sapiens, UniProt P04818)
T1 construct: 6xHis (N); made in house; host or cells: E. coli BL21 (DE3)
Test: Tritium based TS catalytic activity assay
Type: biochemical
Description: The catalytic activity of TS was determined by measuring the release of [31] from [5-3H]dUMP (ViTrax, VT122) resulting from the conversion of dUMP to dTMP as previously described12,33. […] Reactions were performed in 50 mM KH2PO4 (Sigma Aldrich, P0662) at pH 7.2 using 2 μg of purified human TS. Reactions were performed in a final volume of 200 μL with 100 mM β-mercaptoethanol (Sigma Aldrich, M7522), 40 μM dUMP (Sigma Aldrich, D3876), 100 μM 5,10-mTHF, and the [5-3H]dUMP tracer (ViTrax, VT122) accounting for 0.06% of the final dUMP concentration in the reaction. […] Reactions were initiated by the addition of the dUMP substrate and 5,10-mTHF cofactor, then incubated at 37° C. for 30 minutes. […] Reactions were terminated by the addition of 100 μL of ice-cold 20% trichloroacetic acid (Sigma Aldrich, T6399), then excess [5-31-]dUMP was removed by the addition of 200 μL of an albumin-coated activated charcoal solution. The albumin-coated activated charcoal solution was prepared by mixing 10 g of acid-washed activated dextran coated charcoal (Sigma Aldrich, C6241) with 2.5 g of bovine albumin (Sigma Aldrich, A1933) in 100 mL of H2O. The suspension was incubated at room temperature for 30 minutes and then centrifuged for 30 minutes at 10,000×g. […] For all experiments, positive control reactions were performed with no drug representing 100% TS activity, and negative control reactions were performed with no TS enzyme or no 5,10-mTHF substrate representing 0% TS activity. All assays were performed in biological duplicate and technical duplicate. Results were analyzed using GraphPad Prism 8.

T1 sequence (P04818 whole entry): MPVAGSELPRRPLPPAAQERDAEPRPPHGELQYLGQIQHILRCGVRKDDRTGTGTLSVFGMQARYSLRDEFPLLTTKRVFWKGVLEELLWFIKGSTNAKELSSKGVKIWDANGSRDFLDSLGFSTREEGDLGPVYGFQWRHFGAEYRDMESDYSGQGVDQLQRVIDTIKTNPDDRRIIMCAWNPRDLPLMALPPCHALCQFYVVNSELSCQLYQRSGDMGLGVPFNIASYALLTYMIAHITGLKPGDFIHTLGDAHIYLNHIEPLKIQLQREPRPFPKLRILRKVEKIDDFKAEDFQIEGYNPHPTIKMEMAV

CCc1nc(N)nc(N)c1-c1ccc(N(C)Cc2ccccc2)c([N+](=O)[O-])c1 [Compound 19-S]
inhibition of TS catalytic activity, 19-S series library screen (250 uM (FIG. 4A)): inhibited TS activity | TS inhibition at decreasing drug concentrations (compared with Pem and MTX controls (FIG. 4C)): greater TS inhibition than both MTX and Pen; also recorded: both strong TS and DHFR inhibition | TS activity (conversion of dUMP) (drug 250 μM, 10 μg/mL bacterially expressed TS protein (FIG. 1B)): comparable TS inhibition as seen with the 5-FU metabolite FdUrd
